Reference: US12263176B2, “Pharmaceutical liquid compositions of meloxicam” (SLAYBACK PHARMA LLC, priority 2020, dated 2025)

Key:
[1] = cited from earlier work
[2] = following oral administration; cited from earlier work
[3] = system: acute post-operative pain (Brennan) model in Sprague Dawley rats; assay: Acute post-operative pain (Brennan) model, paw withdrawal latency / mechanical hyperalgesia; type: in vivo; conditions: 3 mg/kg IV
Description: Animal Study: Evaluation of Efficacy of Meloxicam Compositions in Acute Post-operative Pain (Brennan) Model in Sprague Dawley Rats.
The analgesic efficacy of Composition K was studied in comparison with Anjeso® and ketorolac tromethamine drug products in a rat acute post-operative pain model at a dose of 3 mg/kg administered by intravenous route.
Meloxicam compositions (Anjeso® & Composition K) & ketorolac drug products were tested in an acute post-operative (Brennan) pain model in rats after intravenous administration. Average paw withdrawal latency & mechanical hyperalgesia (pain assessment) parameters were assessed in rats after intravenous administration of vehicle (0.9% saline), ketorolac tromethamine (3 mg/kg), Anjeso® (3 mg/kg), Composition K (3 mg/kg). Evaluations began 30 minutes following surgery, and were continued for 240 minutes.
Mean paw withdrawal latency was between 8.6 to 8.9 across all the treatment groups. […] Average paw withdrawal latency in normal animals is 9.7 seconds whereas as it was 3.5 seconds in operated animals.

Row | SMILES | solubility in methanol ([1]; methanol) | solubility in water ([1]; water) | time of maximum observed plasma concentration (Tmax) [2] [h] | increased average paw withdrawal latency compared with vehicle (0.9% saline) [3] [%] | effect on development of mechanical allodynia ([3]; from 45 minutes till 240 minutes of recording, statistically significant at 45, 90 and 120 minutes)
1 | Cc1cnc(NC(=O)C2=C(O)c3ccccc3S(=O)(=O)N2C)s1 [Meloxicam, 4-hydroxy-2-methyl-N-(5-methyl-2-thiazolyl)-2H-1,2-benzothiazine-3-carbox-amide-1,1-dioxide] | very slightly soluble | practically insoluble | 5 to 6 |  | 
2 | O=C(c1ccccc1)c1ccc2n1CCC2C(=O)O (centres unmarked) [ketorolac tromethamine] |  |  |  | 68 | significantly prevented the development of mechanical allodynia
